We go through 35 compounds from patent publication US7745450B2, “Pyrazolo[4,3-d]pyrimidines, processes for their preparation and methods for therapy” (Institute of Experimental Botany, priority 2002, dated 2010).

The subject of one test is B16. In words: In vitro cytotoxic activity, Calcein AM. It counts as cell-based. The note with it: Mus musculus, B16, 72 h, three days.
For test [1], the system named is CEM (human lymphoblastoid leukemia). Kind of test: In vitro cytotoxic activity, Calcein AM. The format is cell-based. The note with it: Homo sapiens, 72 h, three days. An outline of the steps: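 CEM cells were seeded at 10^4/well in DMEM + 10% FBS and exposed to six concentrations from 200 to 0.2 μM, in triplicate, for 3 days at 37 °C and 5% CO2. Viable cells were then measured by Calcein AM fluorescence after 1 h loading.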

Another test relates to normal human lymphocytes. In words: Immunosuppressive activity, 3H-thymidine incorporation in concanavalin A activated lymphocytes. It counts as cell-based. The following applies: Lymphocyte, 72 hours, [3H]-TdR, read-out: Human lymphocytes ED50. As to the method:
Human heparinized peripheral blood was obtained from healthy volunteers by cubital vein punction. The blood was diluted in PBS (1:3) and mononuclear cells were separated by centrifugation in Ficoll-Hypaque density gradient (Pharmacia, 1.077 g/ml) at 2200 rpm for 30 minutes. Following centrifugation, lymphocytes were washed in PBS and resuspended in cell culture medium (RMPI 1640, 2 mM glutamine, 100 U/ml penicillin, 100 μg/ml streptomycin, 10% fetal calf serum and sodium bicarbonate).
The cells were diluted at target density of 1.100.000 cells/ml were added by pipette (180 μl) into 96/well microtiter plates. Four-fold dilutions of the intended test concentration were added at time zero in 20 μl aliquots to the microtiter plate wells. Usually, test compound was evaluated at six 4-fold dilutions. In routine testing, the highest well concentration was 266.7 μM. All drug concentrations were examined in duplicates. All wells with exception of unstimulated controls were activated with 50 μl of concanavalin A (25 μg/ml). Incubations of cells with test compounds lasted for 72 hours at 37° C., in 5% CO2 atmosphere and 100% humidity. At the end of incubation period, the cells were assayed by using the [^3H]-TdR:
Cell cultures were incubated with 0.5 μCi (20 μl of stock solution […]) per well for 6 hours at 37° C. and 5% CO2. The automated cell harvester was used to lyse cells in water and adsorb the DNA onto glass-fiber filters in the format of microtiter plate. The DNA incorporated [^3H]-TdR was retained on the filter while unincorporated material passes through. The filters were dried at room temperature overnight, sealed into a sample bag with 10-12 ml of scintillant. The amount of [^3H]-TdR present in each filter (in cpm) was determined by scintillation counting in a Betaplate liquid scintillation counter. The effective dose of immunosuppressant (ED) was calculated using the following equation: ED=(CCPMdrug exposed well/mean CCPMcontrol wells)×100%.

In another test the target is MMK1 protein kinase (Vicia faba, UniProt A0AAV1B7B8). Kind of test: MMK1 protein kinase activity. It counts as biochemical. As to the method: Protein extraction and purification of pant CDK by binding to p13^suc1-beads or immunopurification with an antibody specific to the cdc2a-MS protein was carried out as described previously (Bögre et al. 1997, Plant Physiol. 113, 1997, 841-852). The MMK1 protein kinase was purified with a specific antibody from Vicia faba extracts as described by Bögre et al. 1997a, Plant Cell 9, 75-83). Protein kinase activity was measures as described above in Example 20. The quantification of radioactivity incorporated into histone H1 or myelin basic protein was undertaken using phosphoimager (FIG. 2).

The subject of test [2] is human diploid fibroblasts (HCA cells). Kind of test: Inhibition of senescence, β-galactosidase staining of fibroblasts. The following applies: for SENESCENT CELLS (%) HCA25: HCA cells passage 25, β-galactosidase staining; for SENESCENT CELLS (%) HCA45: HCA cells passage 45, β-galactosidase staining; for SENESCENT CELLS (%) HCA80: HCA cells passage 80, β-galactosidase staining. It counts as cell-based. As to the method: In this example, human diploid fibroblasts (HCA cells of various passage levels: passage 25—designated HCA25; passage 45—designated HCA45; passage 80—designated HCA80) were stained for β-galactosidase activity. The medium present on cultured cells was removed, the cells were washed twice in […], and fixed in 2-3 ml of fixing solution comprised of a 2% formaldehyde and 0.2% glutaraldehyde in PBS. The cells were incubated at room temperature for 5 minutes, then washed twice with PBS. The cells were then incubated at 37° C. […] In this experiment, senescent cells, but not other cells were stained blue due to the action of β-galactosidase on the substrate (FIG. 9).

Sequence of MMK1 protein kinase (A0AAV1B7B8 1-394): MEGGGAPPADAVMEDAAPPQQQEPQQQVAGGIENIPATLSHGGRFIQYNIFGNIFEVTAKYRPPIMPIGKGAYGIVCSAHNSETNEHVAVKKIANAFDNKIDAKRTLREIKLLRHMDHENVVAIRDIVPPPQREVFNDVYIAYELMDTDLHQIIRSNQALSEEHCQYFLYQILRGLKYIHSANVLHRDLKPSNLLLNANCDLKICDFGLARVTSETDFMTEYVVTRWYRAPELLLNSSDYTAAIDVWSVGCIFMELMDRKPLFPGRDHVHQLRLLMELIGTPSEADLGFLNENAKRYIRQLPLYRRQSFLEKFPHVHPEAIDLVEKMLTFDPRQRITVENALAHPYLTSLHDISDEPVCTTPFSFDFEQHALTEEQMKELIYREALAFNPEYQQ

A word on the GI50: it is the concentration giving 50% growth inhibition. As usually defined, the IC50 is the concentration that gives 50% inhibition. Lower therefore signals inhibition by little substance. Regarding `CC(C)c1n[nH]c2c(Nc3cccc(Cl)c3)nc(N(CCO)CCO)nc12`, the figures for the 50% growth inhibitory concentration (GI50) (in the test on B16; in test [1]) were 34 µM and 21 µM, respectively. In addition, the EC50 with normal human lymphocytes came to 7 µM. For the same compound, half-maximal inhibition against MMK1 protein kinase (IC50) was put at 0.19 µM.
Turning to `CC(C)c1n[nH]c2c(NCc3ccccc3)nc(NCCCN)nc12`, the figures for the GI50 (with B16; in test [1]) were 28 µM and 24 µM, respectively. In the test with normal human lymphocytes, the EC50 turned out to be 9.8 µM.
In the case of `CC(C)c1n[nH]c2c(Nc3cccc(Cl)c3)nc(NCCN)nc12`, the GI50 in the test on B16 was 22 µM; in test [1], 16 µM. For the same compound, in the test on normal human lymphocytes, the EC50 was found to be 6.7 µM. In addition, the IC50 at MMK1 protein kinase came out at 0.25 µM.
Regarding `CC(C)c1n[nH]c2c(Nc3cccc(Cl)c3)nc(NC3CCCCC3N)nc12` (stereo not shown), the GI50 is 28 µM in the test with B16 and 14 µM in test [1]. In addition, the EC50 with normal human lymphocytes was determined as 0.2 µM. Further, the IC50 against MMK1 protein kinase came to 0.012 µM.
Consider `Clc1ccc(Nc2ncnc3cn[nH]c23)cc1` [H / 4-chloroanilino / H], for which, in test [2], the “SENESCENT CELLS (%) HCA25” value worked out at 3%, the “SENESCENT CELLS (%) HCA45” value is 6% and the “SENESCENT CELLS (%) HCA80” value amounted to 27%.
As to `CC(C)c1n[nH]c2c(NCc3ccccc3)nc(N[C@@H](CO)C(C)C)nc12`, the values for the 50% growth inhibitory concentration (GI50) (in the test with B16; in test [1]) were 2.3 µM and 2.2 µM, respectively. Further, the EC50 in the test on normal human lymphocytes stood at 6.5 µM.
With `Cc1n[nH]c2c(NCc3ccccc3)nc(NCCN)nc12` [2-aminoethylamino / benzylamino / methyl], the GI50 was 41 µM in the test on B16 and 35 µM in test [1]. In the test on normal human lymphocytes, the EC50 was found to be 14.7 µM. The compound also had an IC50 against MMK1 protein kinase of 15 µM.
Taken in the same sequence, the figures for `CC[C@H](CO)Nc1nc(NCc2ccccc2)c2n[nH]c(C(C)C)c2n1` were 3.2 µM, 2.4 µM, 4.5 µM and 0.03 µM.
The corresponding values for `CC(C)c1n[nH]c2c(NCc3ccccc3)nc(NC3CCC(N)CC3)nc12` (stereo not shown) are 2.3 µM, 1.5 µM, 1.1 µM and 0.02 µM.
Taken in the same sequence, the figures for `Cc1n[nH]c2c(NCc3ccccc3)nc(NC3CCCCC3N)nc12` (stereo not shown) were 3.2 µM, 2.3 µM, 1.2 µM and 0.9 µM.
On to `Cc1n[nH]c2c(NCc3ccccc3)nc(NCCCO)nc12`, for which the GI50 with B16 was 41 µM; in test [1] it was 40 µM. In the test with normal human lymphocytes, the EC50 was found to be 28 µM. The same compound had an IC50 against MMK1 protein kinase of 5.8 µM.
The corresponding values for `CC(C)c1n[nH]c2c(Nc3cccc(Cl)c3)nc(NCCCO)nc12` are 33 µM, 15 µM, 12 µM and 0.2 µM.
As to `CN(Cc1ccc(O)c(O)c1)c1ncnc2cn[nH]c12`, in test [2], the “SENESCENT CELLS (%) HCA25” value was found to be 4%, the “SENESCENT CELLS (%) HCA45” value amounted to 4% and the “SENESCENT CELLS (%) HCA80” value came to 22%.
As to `Cc1n[nH]c2c(NCc3ccccc3)nc(NC3CCC(N)CC3)nc12` (stereo not shown), the GI50 with B16 is 2.5 µM; in test [1], 1.7 µM. The EC50 in the test on normal human lymphocytes is 1.5 µM. Besides, on MMK1 protein kinase, the IC50 was determined as 0.6 µM.
The corresponding values for `Cc1n[nH]c2c(NCc3ccccc3)nc(NCCO)nc12` are 47 µM, 45 µM, 34 µM and 29.3 µM.
Take `Nc1c(Cl)ccc(CNc2ncnc3cn[nH]c23)c1N` [H / 2,3-diamino-4-chlorobenzylamine / H]: in test [2], the “SENESCENT CELLS (%) HCA25” value came to 3%, the “SENESCENT CELLS (%) HCA45” value was 3% and the “SENESCENT CELLS (%) HCA80” value was 18%.
As for `CC(C)c1n[nH]c2c(NCc3ccccc3)nc(NCCCO)nc12`, the GI50 in the test with B16 was 32 µM; in test [1], 21 µM. Also, the EC50 in the test with normal human lymphocytes was found to be 21 µM. On MMK1 protein kinase, this compound came in with an IC50 of 0.8 µM.
Consider `CC(=O)c1ccccc1CNc1ncnc2cn[nH]c12` [H / 2-acetylbenzylamino / H], for which, in test [2], the “SENESCENT CELLS (%) HCA25” value amounted to 3%, the “SENESCENT CELLS (%) HCA45” value is reported as 5% and the “SENESCENT CELLS (%) HCA80” value was determined as 28%.
With `CC(C)c1n[nH]c2c(NCc3ccccc3)nc(NCCO)nc12`, the GI50 in the test on B16 is 37 µM; in test [1] it was 25 µM. Also, the EC50 in the test with normal human lymphocytes worked out at 27 µM. The compound also registered an IC50 on MMK1 protein kinase of 2.3 µM.
Taken in the same sequence, the figures for `CC(C)c1n[nH]c2c(NCc3ccccc3)nc(NC3CCCCC3N)nc12` (stereo not shown) were 28 µM, 14 µM, 0.8 µM and 0.02 µM.
Taken in the same sequence, the figures for `CC(C)c1n[nH]c2c(NCc3ccccc3)nc(N(CCO)CCO)nc12` were 38 µM, 25 µM, 16 µM and 1.1 µM.
The corresponding values for `CC(C)c1n[nH]c2c(NCc3ccccc3)nc(NCCN)nc12` are 42 µM, 26 µM, 11.5 µM and 1.2 µM.
As to `Cc1n[nH]c2c(NCc3ccccc3)nc(NCCCN)nc12`, the GI50 in the test on B16 is 38 µM; in test [1] it was 32 µM. For the same compound, the EC50 in the test on normal human lymphocytes came to 12.4 µM. In addition, on MMK1 protein kinase, the IC50 came to 1.4 µM.
Taken in the same sequence, the figures for `Cc1n[nH]c2c(NCc3ccccc3)nc(N(CCO)CCO)nc12` were 40 µM, 35 µM, 25 µM and 8.1 µM.
Taken in the same sequence, the figures for `CC(C)c1n[nH]c2c(Nc3cccc(Cl)c3)nc(NCCCN)nc12` were 18 µM, 15 µM, 4.5 µM and 0.08 µM.
`Cc1n[nH]c2c(Nc3ccc(N)c(Cl)c3)nc(NCCO)nc12`: the GI50 is 17.5 µM in the test with B16 and 16.2 µM in test [1]. The compound further showed an IC50 at MMK1 protein kinase of 0.25 µM.
For `CC[C@H](CO)Nc1nc(NCc2ccc(Cl)c(O)c2O)c2[nH]nc(C(C)C)c2n1`, the GI50 in the test with B16 is 5.6 µM; in test [1] it was 3.1 µM. Half-maximal inhibition against MMK1 protein kinase (IC50) required 0.011 µM.
Taken in the same sequence, the figures for `CC(C)c1n[nH]c2c(NCc3ccc(Cl)c(N)c3N)nc(N[C@@H](CO)C(C)C)nc12` were 12.4 µM, 8.2 µM and 0.04 µM.
The corresponding values for `CC[C@H](CO)Nc1nc(NCc2cccc(OC(C)=O)c2)c2[nH]nc(C(C)C)c2n1` are 23.7 µM, 18.5 µM and 0.4 µM.
Consider `COc1cccc(CNc2nc(N[C@@H](CO)C(C)C)nc3c(C(C)C)n[nH]c23)c1O`, for which the GI50 is 9.1 µM in the test with B16 and 9.7 µM in test [1]. At MMK1 protein kinase, this compound had an IC50 of 0.015 µM.
Taken in the same sequence, the figures for `CC[C@H](CO)Nc1nc(Nc2cc(N)cc(Cl)c2)c2[nH]nc(C(C)C)c2n1` were 16.5 µM, 9.4 µM and 0.02 µM.
Take `Cc1n[nH]c2c(Nc3ccc(Cl)c(N)c3)nc(NCCO)nc12`: the GI50 is 6.4 µM with B16 and 5.7 µM in test [1]. This compound displayed an IC50 against MMK1 protein kinase of 0.24 µM.
In the case of `Cc1n[nH]c2c(N(C)Cc3ccc(O)c(O)c3)nc(NCCO)nc12`, the values for the GI50 (in the test on B16; in test [1]) were 11.5 µM and 10.3 µM, respectively. Besides, on MMK1 protein kinase, half-maximal inhibition (IC50) required 1.95 µM.
On to `Cc1n[nH]c2c(NCc3ccccc3O)nc(NCCO)nc12`, for which the results for the GI50 (in the test with B16; in test [1]) were 8.2 µM and 5.6 µM, respectively. In addition, it took 0.41 µM to reach half-maximal inhibition against MMK1 protein kinase (IC50).
The corresponding values for `Cc1n[nH]c2c(Nc3ccc(C(=O)O)c(Cl)c3)nc(NCCO)nc12` are 9.2 µM, 8.9 µM and 0.16 µM.
